Results taken from patent US6743917B2, “Camptothecin analogs and methods of preparation thereof” (University of Pittsburgh, priority 1993, dated 2004).
Read-outs that look alike come from different tables or passages of the source.

What was measured:
[1] = system: DC-3F (hamster lung) cells; assay: Cytotoxicity assay, DC-3F cells (sulforhodamine B protein content); type: cell-based; conditions: Mesocricetus auratus, DC3F; DC-3F cells, sulforhodamine B; read-out: Inhibition of cancer cell growth IC50, DC-3F
Method: (§1) Cultures were fixed with trichloroacetic acid and then stained for 30 minutes with 0.4% sulforhodamine B dissolved in 1% acetic acid. Unbound dye was removed by acetic acid washes, and the protein-bound dye was extracted with an unbuffered Tris base [tris(hydroxy-methyl)aminomethan] for determination of absorbance at 570 nm in a 96-well microplate reader. The experiments were carried out in duplicate using five to six concentrations of the drugs tested. Data were analyzed via computer software.

in vitro = conditions: human
[2] = Kinetics of lactone ring opening in RBC (HPLC); type: in vitro ADME, human
Excerpt: Kinetics of Lactone Ring Opening. […] Mi and Burke (1994), supra. […] Louis, Mo.) was used.

[3] = human; for t1/2: blood
[4] = Kinetics of lactone ring opening in PBS buffer (HPLC); type: physicochemical; conditions: for % Lactone at Equilibrium: PBS; for half-life: pH 7.4
Method: Kinetics of Lactone Ring Opening. […] Mi and Burke (1994), supra.
FIG. 21 summarizes the stability of DB172 in phosphate buffered saline (PBS) buffer, pH 7.4, at physiological temperature. Shown in the figure are plots of lactone fraction as a function of time for DB172 at different concentrations. Drug was added to solution from a concentrated DMSO stock solution such that the volumes of DMSO were very small (less than 0.5%) relative to the volume of water. […] At the more dilute drug concentrations the drug hydrolyzes as previously observed for other camptothecins containing the ^α-hydroxy-^δ-lactone moiety.

[5] = system: 833K (human teratocarcinoma) cells; assay: Cytotoxicity assay, 833K cells (sulforhodamine B protein content); type: cell-based; conditions: Homo sapiens; 833K cells, sulforhodamine B; read-out: Inhibition of cancer cell growth IC50, 833K
Method: as §1

[6] = system: HL-60 (human promyelocytic leukemic) cells; assay: Cytotoxicity assay, HL-60 cells (XTT-microculture tetrazolium assay); type: cell-based; conditions: Homo sapiens; HL-60 cells, 72 hr incubation, XTT; read-out: Inhibition of cancer cell growth IC50, HL-60
Method: The camptothecin derivatives were evaluated for their cytotoxic effects on the growth of HL-60 (human promyelocytic leukemic), 833K (human teratocarcinoma) and DC-3F (hamster lung) cells in vitro. The cells were cultured in an initial density of […]. They were maintained in a 5% CO2 humidified atmosphere at 37° C. in RPMI-1640 media (GIBCO-BRL Grand Island, N.Y.) containing penicillin 100 μ/ml)/streptomycin (100 ^μg/ml) (GIBCO-BRL) and 10% heat inactivated fetal bovine serum. The assay was performed in duplicate in 96-well microplates. The cytotoxicity of the compounds toward HL-60 cells following 72 hr incubation was determined by XTT-microculture tetrazolium assay. Scudiero, D. A., et al., Cancer Res., 48, 4827 (1988), the disclosure of which is incorporated herein by reference. 2′, 3′-bis(-methoxy-4-nitro-5-sulfheny)-5-[(phenylamino)carbonyl]-2H-tetrazolium hydroxide (XTT) was prepared at 1 mg/ml in prewarmed (37° C.) medium without serum. Phenazine methosulfate (PMS) and fresh XTT were mixed together to obtain 0.075 mM PMS-XTT solution (25 ^μl of the stock 5 mM PMS was added per 5 ml of 1 mg/ml XTT). Fifty ^μl of this mixture was added to each well of the cell culture at the end of 72 hr incubation. After incubation at 37° C. for 4 hr., absorbance at 450 nm and 630 nm was measured with a microplate reader (EL340, Bio-Tek Instruments, Inc., Winooski, Vt.).

[7] = Equilibrium binding to DMPC small unilamellar vesicles (fluorescence anisotropy titration); conditions: for KDMPC overall association constant: PBS buffer at PH 7.4 and 37° C.
[8] = Equilibrium binding to DMPG small unilamellar vesicles (fluorescence anisotropy titration); conditions: PBS buffer at PH 7.4 and 37° C.
[9] = Kinetics of lactone ring opening in whole human blood (HPLC); conditions: Whole Blood, physiological temperature;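 note: hydrolytic opening of the camptothecin lactone ring followed over time by quantitative C18 reversed-phase HPLC in human whole blood at physiological temperature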
[10] = Kinetics of lactone ring opening in PBS containing HSA (HPLC); conditions: for % Lactone at Equilibrium / t1/2: HSA (PBS containing 30 mg/ml HSA)
[11] = Self-association in aqueous solution (fluorescence intensity with time); type: physicochemical; conditions: lactone drug forms added to solution, time=0
Method: FIG. 22 summarizes the dependence of the fluorescence intensity of DB172 as a function of time and pH. In these experiments DB172 is added to solution as the lactone form. At low pH where the drug remains in the lactone form, the change in intensity with time is the lowest. At pH 10, where the conditions are such that the lactone more readily hydrolyzes and forms carboxylate, a significant change in fluorescence intensity is observed. It appears that a pH 10 nonfluorescent micellular aggregates composed of lactone disassemble and form open-ring carboxylate forms that tend to exist in solution as monomeric fluorescent species.
FIG. 23 explores the fluorescence intensity of DB172 as a function of concentration. Following the addition of low concentration of lactone drug to solution, the change in fluorescence signal is the greatest whereas at high drug concentration (10 ^μM) the fluorescence intensity changes are minimal. It is believed that a low concentration the micellular aggregates of DB172 displaying reduced fluorescence can disassemble and form fluorescent carboxylate species, but at higher drug concentration the equilibrium favors that the agent remains in the aggregated or reduced fluorescence state. […] Once again this decrease in fluorescence that occurs at reduced pH appear to be due to the formation of lactone aggregates of reduced fluorescence quantum yield.
FIGS. 21 through 24 are consistent with the unusual ability of DB172 lactone to self-associate and form micelles at micromolar drug concentrations. The micellular DB172 aggregates display a reduced fluorescence. If conditions allow for hydrolysis to occur such that carboxylate forms, there is an increase in the fluorescence intensity of the sample. FIG. 25 compares the relative change in the fluorescence emission of a sample following addition of lactone drug forms to solution. In these experiments the values for each drug are normalized to a value of 1 at time equals to zero, and the ability of the various analogs to disassociate in the event the drugs are aggregated at time=0 is monitored with time. […]

[12] = system: MDA-MB-435 tumorigenic metastatic human breast cancer cells; assay: cells; type: cell-based
Method: Cells. […] The cells were exposed to a range of drug concentrations for 72 hr exposure periods and then viability was assessed using a sulphorrhodamine B (SRB) assay. SRB assays were performed using a standard assay.
Sulphorhodamine B (SRB) assay was used. This assay measures the total protein levels in the living cells. Proteins from dead cells are lysed and removed in the washing step before TCA fixation. However, it is possible that cells in the early stage of death still have their membrane integrity and therefore retain the protein contents inside. As a result, the optical density at 490 nm can sometimes be overestimated and the cytotoxicity underestimated. […] The SRB assay is now a well regarded assay and was recently approved by NCI as a standard assay for anticancer drug screening.

[13] = earlier studies; cited from earlier work

Row | SMILES | IC50 [1] | % Lactone at Equilibrium [4] | half-life ([4]; buffer) | IC50 [5] | IC50 [6] | KDMPC overall association constant [7] | KDMPG overall association constant [8] | % Lactone at Equilibrium [9] | % Lactone at Equilibrium [10] | % lactone at equilibrium in whole human blood [13] | further results
1 | CCC1(O)C(=O)OCc2c1cc1n(c2=O)Cc2c-1nc1ccccc1c2[Si](C)(C)C(C)(C)C (stereo in doubt) [Example 2, (20S)-7-tert-butyldimethylsilylcamptothecin] | 2.9 nM | 12.2 +/− 0.4% | 27.9 min | 1.2 nM | 0.12 nM | – | – | – | – | – | half-life (in vitro; blood): 71.9 min; % Lactone at Equilibrium ([2]; human): 59.4 +/− 0.0%; half-life ([2]; human): 79.4 min; % Lactone at Equilibrium [3]: 1.0 +/− 0.1%
2 | CCC1(O)C(=O)OCc2c1cc1n(c2=O)Cc2c-1nc1ccc(N)cc1c2[Si](C)(C)C (stereo in doubt) [Example 8, (20S)-10-amino-7-trimethylsilylcamptothecin] | 0.72 nM | 10.5 +/− 0.3% | 31.3 min | 5.7 nM | 0.52 nM | 820 M⁻¹ | 360 M⁻¹ | – | – | – | half-life (in vitro; blood): 37.6 min; % Lactone at Equilibrium [3]: 12.3 +/− 0.0%
3 | CC[C@@]1(O)C(=O)OCc2c1cc1n(c2=O)Cc2c-1nc1ccccc1c2[Si](C)(C)CCCN(C)C.Cl [DB-104, 7-(3-dimethylaminopropyldimethylsilyl) camptothecin hydrochloride salt] | – | 7.5 +/− 0.2% | – | – | – | – | – | – | – | – | t1/2 [3]: 77.2 ± 1.8 min; t1/2 ([4]; buffer): 24.1 ± 1.0 min
4 | CC[C@@]1(O)C(=O)OCc2c1cc1n(c2=O)Cc2c-1nc1ccc(O)cc1c2[Si](C)(C)CCCCl [DB-158, (20S)-10-hydroxy-7-(3-chloropropyldimethylsilyl) camptothecin] | – | 11.3 +/− 1.8% | – | – | – | – | – | 17.8 +/− 2.0% | 17.2 +/− 0.7% | – | t1/2 [9]: 65.3 ± 9.0 min; t1/2 [10]: 48.0 ± 0.9 min; % Lactone at Equilibrium ([2]; RBC): 50.2 +/− 1.7%; t1/2 ([2]; RBC): 67.7 ± 8.5 min
5 | CC[C@@]1(O)C(=O)OCc2c1cc1n(c2=O)Cc2c-1nc1ccccc1c2CC[Si](C)(C)C [DB-172, (20S)-7-[(2-Trimethylsilyl)ethyl]camptothecin] | – | – | – | – | – | 10500 M⁻¹ | 10600 M⁻¹ | 24.1 +/− 2.6% | 4.3 +/− 1.0% | – | t1/2 [9]: 106.6 ± 10.8 min; self-association / aggregation state in solution [11]: self-associates to an exceptionally high degree; t1/2 [10]: 86.1 ± 10.3 min; K value for DMPC, fold greater than camptothecin ([7]; relative to camptothecin): ~100 fold; lactone ring stability at high drug concentrations ([4]; PBS buffer, pH 7.4, physiological temperature): marked stabilization of the lactone ring
6 | CC[C@@]1(O)C(=O)OCc2c1cc1n(c2=O)Cc2c-1nc1ccc(N)cc1c2CC[Si](C)(C)C [DB-173] | – | 11.9 +/− 0.3% | 45.3 min | – | – | 5800 M⁻¹ | 5800 M⁻¹ | – | – | – | self-association / aggregation state in solution [11]: much more likely to be found in solution as monomeric drug relative to DB172; half-life ([10]; human, PBS containing 30 mg/ml HSA, pH 7.4): 49 min; half-life (in vitro; whole blood): 69 min; K value for DMPC, fold greater than camptothecin ([7]; relative to camptothecin): ~58 fold; IC50 ([12]; Homo sapiens, MDA-MB-435, 72 h, read-out: IC50 (w/o HSA)): 4 nM; effect of 1 mg/ml HSA on the cytotoxic activity ([12]; MDA-MB-435 cells): no effect
7 | CCc1c2c(nc3ccc(OC(=O)N4CCC(N5CCCCC5)CC4)cc13)-c1cc3c(c(=O)n1C2)COC(=O)[C@]3(O)CC [IRT, irinotecan, reference compound] | 372 nM | – | – | 487 nM | 270 nM | – | – | 21.0% | – | 21.0% | lactone level at equilibrium in whole blood, fold greater than 9-aminocamptothecin [3]: approximately 40 fold
8 | CCc1c2c(nc3ccc(O)cc13)-c1cc3c(c(=O)n1C2)COC(=O)[C@]3(O)CC [SN-38, 10-hydroxy-7-ethylcamptothecin, reference compound] | – | – | – | – | – | 260 M⁻¹ | 160 M⁻¹ | 19.5% | – | 19.5% | % Lactone at Equilibrium ([9]; listed as SN 38): 20.2 +/− 1.9%; t1/2 [3]: 50.7 ± 1.4 min
9 | CC[C@@]1(O)C(=O)OCc2c1cc1n(c2=O)Cc2cc3c(CN(C)C)c(O)ccc3nc2-1 [Topotecan, topotecan, reference compound] | – | – | – | – | – | – | – | 8.61 +/− 0.4% | 7.06 +/− 0.3% | 11.9% | % Lactone at Equilibrium ([9]; listed as topotecan): 8.6%; half-life (in vitro; whole blood): 30.9 min; lactone level at equilibrium in whole blood, fold greater than 9-aminocamptothecin [3]: 20 fold; K value for DMPC liposomes, times less than that for camptothecin ([7]; relative to camptothecin): ~10 times
